Values of other authors as cited in paper PMC10486429, “Investigations Using Albumin Binders to Modify the Tissue Distribution Profile of Radiopharmaceuticals Exemplified with Folate Radioconjugates” (Cancers, 2023).
Read-outs that look alike come from different tables or passages of the source.

Key:
[1] = n-octanol/PBS pH 7.4; cited from earlier work
[2] = design: method as in PMID 33063250; conditions: n-octanol/PBS pH 7.4; cited from earlier work
[3] = tested on: KB tumor-bearing athymic nude mice; design: method as in earlier work; conditions: cited from earlier work
folate receptor (FR) = molecular target: T1, folate receptor (FR) (Homo sapiens, UniProt P15328); design: method as in PMID 34251183; conditions: IGROV-1 cells; read-out: KD Value (95% CI); cited from earlier work
T1 construct: endogenous in cells; host or cells: IGROV-1 (human ovarian carcinoma cell line), intact cells on ice
T1 sequence (P15328 25-257): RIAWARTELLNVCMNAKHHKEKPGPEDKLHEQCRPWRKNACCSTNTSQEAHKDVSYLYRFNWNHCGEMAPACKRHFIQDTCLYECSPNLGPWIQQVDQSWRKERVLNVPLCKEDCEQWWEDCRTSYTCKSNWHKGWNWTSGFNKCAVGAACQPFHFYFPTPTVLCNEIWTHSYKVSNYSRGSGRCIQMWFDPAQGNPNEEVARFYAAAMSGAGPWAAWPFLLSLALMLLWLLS

Structure (SMILES): O=C(O)CN1CCN(CC(=O)O)CCN(CC(=O)NCCC(=O)N[C@@H](CCCCNC(=O)CCCc2ccc(I)cc2)C(=O)O)CCN(CC(=O)O)CC1.[177Lu] [[^177Lu]Lu-DOTA-ALB-1]
- logD value [1]: −3.15 ± 0.04

Structure (SMILES): CN1c2c(nc(N)[nH]c2=O)NCC1CNc1ccc(C(=O)NC(CCC(=O)NC(CCCCNC(=O)CN2CCN(CC(=O)[O-])CCN(CC(=O)[O-])CCN(CC(=O)[O-])CC2)C(=O)NC(CCCCNC(=O)CCCc2ccc(I)cc2)C(=O)O)C(=O)O)cc1.[177Lu+3] (stereo not drawn) [[^177Lu]Lu-6S-RedFol-1]
- logD Values [2]: −3.7 ± 0.1 ^4
- Blood, accumulated activity ([3]; 1 h p.i.): 19 ± 2 % IA/g
- Bone, accumulated activity ([3]; 1 h p.i.): 2.0 ± 0.2 % IA/g
- Intestines, accumulated activity ([3]; 1 h p.i.): 1.8 ± 0.4 % IA/g
- KB tumor, accumulated activity ([3]; 1 h p.i.): 14 ± 3 % IA/g
- Kidneys, accumulated activity ([3]; 1 h p.i.): 18 ± 2 % IA/g
- Liver, accumulated activity ([3]; 1 h p.i.): 2.6 ± 0.1 % IA/g
- Lung, accumulated activity ([3]; 1 h p.i.): 8.5 ± 0.6 % IA/g
- Muscle, accumulated activity ([3]; 1 h p.i.): 1.6 ± 0.2 % IA/g
- Salivary glands, accumulated activity ([3]; 1 h p.i.): 4.0 ± 0.2 % IA/g
- Spleen, accumulated activity ([3]; 1 h p.i.): 2.0 ± 0.2 % IA/g
- Stomach, accumulated activity ([3]; 1 h p.i.): 1.5 ± 0.3 % IA/g
- Tumor-to-blood ratio ([3]; 1 h p.i.): 0.73 ± 0.12
- Tumor-to-kidney ratio ([3]; 1 h p.i.): 0.75 ± 0.09
- Tumor-to-liver ratio ([3]; 1 h p.i.): 5.3 ± 1.0
- Blood, accumulated activity ([3]; 4 h p.i.): 15 ± 2 % IA/g
- Bone, accumulated activity ([3]; 4 h p.i.): 1.7 ± 0.2 % IA/g
- Intestines, accumulated activity ([3]; 4 h p.i.): 1.9 ± 0.1 % IA/g
- KB tumor, accumulated activity ([3]; 4 h p.i.): 26 ± 1 % IA/g
- Kidneys, accumulated activity ([3]; 4 h p.i.): 33 ± 2 % IA/g
- Liver, accumulated activity ([3]; 4 h p.i.): 2.3 ± 0.2 % IA/g
- Lung, accumulated activity ([3]; 4 h p.i.): 6.7 ± 0.6 % IA/g
- Muscle, accumulated activity ([3]; 4 h p.i.): 1.3 ± 0.1 % IA/g
- Salivary glands, accumulated activity ([3]; 4 h p.i.): 3.5 ± 0.4 % IA/g
- Spleen, accumulated activity ([3]; 4 h p.i.): 1.9 ± 0.3 % IA/g
- Stomach, accumulated activity ([3]; 4 h p.i.): 1.2 ± 0.2 % IA/g
- Tumor-to-blood ratio ([3]; 4 h p.i.): 1.7 ± 0.2
- Tumor-to-kidney ratio ([3]; 4 h p.i.): 0.79 ± 0.07
- Blood, accumulated activity ([3]; 24 h p.i.): 3.8 ± 0.9 % IA/g
- Bone, accumulated activity ([3]; 24 h p.i.): 0.53 ± 0.08 % IA/g
- Intestines, accumulated activity ([3]; 24 h p.i.): 0.49 ± 0.04 % IA/g
- KB tumor, accumulated activity ([3]; 24 h p.i.): 46 ± 3 % IA/g
- Kidneys, accumulated activity ([3]; 24 h p.i.): 69 ± 7 % IA/g
- Liver, accumulated activity ([3]; 24 h p.i.): 0.81 ± 0.22 % IA/g
- Lung, accumulated activity ([3]; 24 h p.i.): 2.2 ± 0.4 % IA/g
- Muscle, accumulated activity ([3]; 24 h p.i.): 0.47 ± 0.15 % IA/g
- Salivary glands, accumulated activity ([3]; 24 h p.i.): 1.4 ± 0.2 % IA/g
- Spleen, accumulated activity ([3]; 24 h p.i.): 1.1 ± 0.2 % IA/g
- Stomach, accumulated activity ([3]; 24 h p.i.): 0.51 ± 0.14 % IA/g
- Tumor-to-blood ratio ([3]; 24 h p.i.): 13 ± 3
- Tumor-to-kidney ratio ([3]; 24 h p.i.): 0.67 ± 0.08
- Tumor-to-liver ratio ([3]; 24 h p.i.): 59 ± 13
- Kd (folate receptor (FR)): 1.7 nM

Structure (SMILES): CN1c2c(nc(N)[nH]c2=O)NC[C@H]1CNc1ccc(C(=O)N[C@@H](CCC(=O)N[C@@H](CCCCNC(=O)CN2CCN(CC(=O)O)CCN(CC(=O)O)CCN(CC(=O)O)CC2)C(=O)N[C@@H](CCCCNC(=O)CCCc2ccc(I)cc2)C(=O)O)C(=O)O)cc1 [[^177Lu]Lu-6R-RedFol-1, metal not drawn]
- logD Values [2]: −3.9 ± 0.2 ^4
- Blood, accumulated activity ([3]; 1 h p.i.): 23 ± 3 % IA/g
- Bone, accumulated activity ([3]; 1 h p.i.): 2.1 ± 0.3 % IA/g
- Intestines, accumulated activity ([3]; 1 h p.i.): 2.9 ± 0.3 % IA/g
- Kidneys, accumulated activity ([3]; 1 h p.i.): 8.4 ± 0.8 % IA/g
- Liver, accumulated activity ([3]; 1 h p.i.): 3.3 ± 0.3 % IA/g
- Lung, accumulated activity ([3]; 1 h p.i.): 10 ± 1 % IA/g
- Muscle, accumulated activity ([3]; 1 h p.i.): 1.6 ± 0.2 % IA/g
- Salivary glands, accumulated activity ([3]; 1 h p.i.): 5.0 ± 0.3 % IA/g
- Spleen, accumulated activity ([3]; 1 h p.i.): 2.6 ± 0.2 % IA/g
- Stomach, accumulated activity ([3]; 1 h p.i.): 1.9 ± 0.4 % IA/g
- Tumor-to-blood ratio ([3]; 1 h p.i.): 0.46 ± 0.01
- Tumor-to-kidney ratio ([3]; 1 h p.i.): 1.3 ± 0.1
- Tumor-to-liver ratio ([3]; 1 h p.i.): 3.3 ± 0.2
- Blood, accumulated activity ([3]; 4 h p.i.): 17 ± 1 % IA/g
- Bone, accumulated activity ([3]; 4 h p.i.): 1.9 ± 0.2 % IA/g
- Intestines, accumulated activity ([3]; 4 h p.i.): 2.6 ± 0.7 % IA/g
- KB tumor, accumulated activity ([3]; 4 h p.i.): 20 ± 2 % IA/g
- Kidneys, accumulated activity ([3]; 4 h p.i.): 12 ± 1 % IA/g
- Liver, accumulated activity ([3]; 4 h p.i.): 3.0 ± 0.2 % IA/g
- Lung, accumulated activity ([3]; 4 h p.i.): 7.9 ± 1.4 % IA/g
- Muscle, accumulated activity ([3]; 4 h p.i.): 1.4 ± 0.1 % IA/g
- Salivary glands, accumulated activity ([3]; 4 h p.i.): 5.7 ± 0.5 % IA/g
- Spleen, accumulated activity ([3]; 4 h p.i.): 2.2 ± 0.2 % IA/g
- Stomach, accumulated activity ([3]; 4 h p.i.): 1.9 ± 0.3 % IA/g
- Tumor-to-blood ratio ([3]; 4 h p.i.): 1.2 ± 0.1
- Tumor-to-kidney ratio ([3]; 4 h p.i.): 1.7 ± 0.1
- Tumor-to-liver ratio ([3]; 4 h p.i.): 6.9 ± 0.7
- Blood, accumulated activity ([3]; 24 h p.i.): 5.4 ± 0.9 % IA/g
- Bone, accumulated activity ([3]; 24 h p.i.): 0.91 ± 0.22 % IA/g
- Intestines, accumulated activity ([3]; 24 h p.i.): 0.80 ± 0.09 % IA/g
- KB tumor, accumulated activity ([3]; 24 h p.i.): 47 ± 4 % IA/g
- Kidneys, accumulated activity ([3]; 24 h p.i.): 24 ± 4 % IA/g
- Liver, accumulated activity ([3]; 24 h p.i.): 1.3 ± 0.2 % IA/g
- Lung, accumulated activity ([3]; 24 h p.i.): 3.2 ± 0.6 % IA/g
- Muscle, accumulated activity ([3]; 24 h p.i.): 0.82 ± 0.22 % IA/g
- Salivary glands, accumulated activity ([3]; 24 h p.i.): 5.2 ± 1.0 % IA/g
- Spleen, accumulated activity ([3]; 24 h p.i.): 1.7 ± 0.1 % IA/g
- Stomach, accumulated activity ([3]; 24 h p.i.): 0.80 ± 0.11 % IA/g
- Tumor-to-blood ratio ([3]; 24 h p.i.): 8.8 ± 0.8
- Tumor-to-kidney ratio ([3]; 24 h p.i.): 2.0 ± 0.4
- Tumor-to-liver ratio ([3]; 24 h p.i.): 35 ± 4
- Kd (folate receptor (FR)): 2.6 nM
